ChEMBL document CHEMBL1146244, “Stictic acid derivatives from the lichen Usnea articulata and their antioxidant activities” (J Nat Prod, 2007)

What was measured:
[1] = DPPH radical scavenging activity at 3000 uM; format: functional
[2] = Superoxide radical scavenging activity; format: functional

| Structure (SMILES) | Activity [1] | IC50 [2] |
| --- | --- | --- |
| COc1cc(C)c2c(c1C=O)Oc1c(C=O)c(C(=O)O)c(O)c(C)c1OC2=O | 30% |  |
| COc1cc(C)c2c(c1CO)Oc1c3c(c(O)c(C)c1OC2=O)C(=O)OC3 | 18% |  |
| Cc1cc(O)c(C=O)c2c1C(=O)Oc1c(COC(=O)/C=C/C(=O)O)c(O)c(C(=O)O)c(C)c1O2 [FUMARPROTOCETRARIC ACID] | 20% | 580 µM |
| Cc1cc(O)c(C=O)c2c1C(=O)Oc1c(C)c(O)c3c(c1O2)C(O)OC3=O (stereo not given) [NORSTICTIC ACID] |  | 566 µM |
